IC50 data for twelve compounds are collected here from patent publication US8586591B2, “Aminopyrazine derivative and medicine” (Nippon Shinyaku Co., Ltd., priority 2009, dated 2013).

Structures are written as SMILES. Counter-ions that a name gives are not always drawn.

For one assay, the target named is T1, JAK2 tyrosine kinase (Homo sapiens, UniProt O60674).
T1 construct: purchased Carnabioscience Co
Put plainly: Test 1: inhibitory activity to JAK2 tyrosine kinase (ELISA). In kind it is biochemical. The settings on record: 25 μM ATP in substrate solution, 30° C. for 1 hour, n=2. The essentials:
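Human JAK2 (diluted to 0.75 nM before addition) phosphorylated a biotinylated peptide on streptavidin plates for 1 h at 30 °C. The substrate mix held 625 nM peptide, 25 μM ATP and 25 mM MgCl2 in 15 mM Tris pH 7.5, 0.01% Tween-20 and 1 mM DTT. Phosphotyrosine was detected by HRP antibody/TMB at 450 nm, and IC50 was obtained by non-linear regression; duplicates were run.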
For orientation: ELISA stands for enzyme-linked immunosorbent assay.

The next assay concerns the target T2, JAK3 tyrosine kinase (Homo sapiens, UniProt P52333).
T2 construct: purchased Carnabioscience Co
T2 sequence (P52333 1-1124): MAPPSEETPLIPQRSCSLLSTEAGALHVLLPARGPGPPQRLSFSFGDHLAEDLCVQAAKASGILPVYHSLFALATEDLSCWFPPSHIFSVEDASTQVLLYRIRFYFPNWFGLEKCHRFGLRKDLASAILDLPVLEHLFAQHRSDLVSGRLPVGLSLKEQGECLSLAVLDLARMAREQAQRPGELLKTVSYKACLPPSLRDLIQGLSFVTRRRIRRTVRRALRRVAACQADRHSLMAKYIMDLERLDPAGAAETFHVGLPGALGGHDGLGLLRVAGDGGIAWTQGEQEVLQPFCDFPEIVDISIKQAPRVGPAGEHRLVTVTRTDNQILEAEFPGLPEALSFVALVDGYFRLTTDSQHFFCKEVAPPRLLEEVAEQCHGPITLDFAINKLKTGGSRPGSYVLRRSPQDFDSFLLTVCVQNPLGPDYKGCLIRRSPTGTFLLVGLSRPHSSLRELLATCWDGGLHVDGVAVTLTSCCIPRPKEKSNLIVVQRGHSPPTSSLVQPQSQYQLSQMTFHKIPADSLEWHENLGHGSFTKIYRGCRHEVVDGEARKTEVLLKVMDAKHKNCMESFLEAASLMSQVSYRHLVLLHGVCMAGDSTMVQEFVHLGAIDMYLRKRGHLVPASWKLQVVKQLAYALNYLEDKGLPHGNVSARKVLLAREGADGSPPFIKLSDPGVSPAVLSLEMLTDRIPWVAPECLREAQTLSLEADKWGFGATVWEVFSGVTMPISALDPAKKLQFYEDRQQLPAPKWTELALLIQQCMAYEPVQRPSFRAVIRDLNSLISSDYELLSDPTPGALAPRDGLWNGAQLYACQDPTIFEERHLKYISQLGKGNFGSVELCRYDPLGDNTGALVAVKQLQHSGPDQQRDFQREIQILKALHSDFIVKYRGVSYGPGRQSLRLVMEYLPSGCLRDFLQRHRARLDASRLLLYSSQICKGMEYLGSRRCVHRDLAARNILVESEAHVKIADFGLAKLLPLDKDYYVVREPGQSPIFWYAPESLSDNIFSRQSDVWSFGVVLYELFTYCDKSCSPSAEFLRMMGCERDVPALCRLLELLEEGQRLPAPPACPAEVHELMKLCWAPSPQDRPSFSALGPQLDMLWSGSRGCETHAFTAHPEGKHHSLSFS
Put plainly: Test 1: inhibitory activity to JAK3 tyrosine kinase (ELISA). It is filed as biochemical. The note with it: 25 μM ATP in substrate solution, 30° C. for 1 hour, n=2. The essentials:
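ELISA of JAK3 kinase activity with absorbance read at 450 nm. Compounds were tested from DMSO dilution series at 100-fold the measurement concentrations (1000–0.01 μM), diluted up to 20 times in assay buffer, against a DMSO negative control. IC50 was estimated by non-linear regression of absorbance.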

T1 sequence (O60674 whole entry): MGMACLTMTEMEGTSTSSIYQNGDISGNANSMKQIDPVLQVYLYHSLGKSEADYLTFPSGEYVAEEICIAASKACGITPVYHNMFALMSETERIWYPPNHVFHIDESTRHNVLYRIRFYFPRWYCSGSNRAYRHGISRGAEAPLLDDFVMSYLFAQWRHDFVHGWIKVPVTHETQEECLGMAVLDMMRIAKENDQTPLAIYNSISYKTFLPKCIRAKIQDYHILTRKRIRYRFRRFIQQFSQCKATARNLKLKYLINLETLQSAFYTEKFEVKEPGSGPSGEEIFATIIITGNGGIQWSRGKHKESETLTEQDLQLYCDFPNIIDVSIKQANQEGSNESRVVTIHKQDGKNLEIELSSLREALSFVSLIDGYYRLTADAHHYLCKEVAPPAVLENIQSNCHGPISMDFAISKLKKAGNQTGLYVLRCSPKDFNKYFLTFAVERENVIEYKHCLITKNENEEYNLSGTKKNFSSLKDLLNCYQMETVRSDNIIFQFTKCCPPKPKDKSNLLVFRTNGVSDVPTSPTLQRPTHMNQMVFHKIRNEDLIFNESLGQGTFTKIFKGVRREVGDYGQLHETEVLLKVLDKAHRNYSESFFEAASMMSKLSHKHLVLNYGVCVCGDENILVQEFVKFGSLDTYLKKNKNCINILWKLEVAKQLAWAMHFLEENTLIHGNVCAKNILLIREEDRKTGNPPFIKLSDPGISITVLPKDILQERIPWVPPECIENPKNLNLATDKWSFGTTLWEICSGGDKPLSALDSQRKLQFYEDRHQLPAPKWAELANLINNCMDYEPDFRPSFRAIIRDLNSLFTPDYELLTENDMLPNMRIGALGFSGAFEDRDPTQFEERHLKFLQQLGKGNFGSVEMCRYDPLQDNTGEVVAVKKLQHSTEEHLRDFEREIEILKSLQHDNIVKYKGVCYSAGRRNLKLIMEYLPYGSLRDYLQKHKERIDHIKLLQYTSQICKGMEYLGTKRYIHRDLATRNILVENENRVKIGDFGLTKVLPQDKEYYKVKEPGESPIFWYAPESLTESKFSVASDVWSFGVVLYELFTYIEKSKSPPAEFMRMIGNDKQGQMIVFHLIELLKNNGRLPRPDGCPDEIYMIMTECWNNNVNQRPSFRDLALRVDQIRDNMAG

As a reminder, the IC50 is the concentration that inhibits the measured activity by half. A lower IC50 goes with greater potency in that assay. For `COc1ncc(-c2cc(Nc3cnccn3)nc(N[C@@H](C)c3ccc(F)cc3)n2)s1` [Example 53, (S)—N^2-[1-(4-Fluorophenyl)ethyl]-6-(2-methoxythiazol-5-yl)-N^4-(pyrazin-2-yl)pyrimidine-2,4-diamine], the IC50 against JAK2 tyrosine kinase is 5.9 nM; against JAK3 tyrosine kinase it was 390 nM.

`C[C@H](Nc1nc(Nc2cnccn2)cc(-c2nccs2)n1)c1ccc(F)cc1` [Example 54, (S)—N^2-[1-(4-Fluorophenyl)ethyl]-N^4-(pyrazin-2-yl)-6-(thiazol-2-yl)pyrimidine-2,4-diamine]: the figures for the half-inhibitory concentration (IC50) on JAK2 tyrosine kinase and on JAK3 tyrosine kinase were 22 nM and 1800 nM, respectively.

With `C[C@H](Nc1nc(Nc2cnccn2)cc(-c2ccc(C#N)nc2)n1)c1ccc(F)cc1` [Example 55, (S)-5-{2-[1-(4-Fluorophenyl)ethylamino]-6-(pyrazin-2-ylamino)pyrimidin-4-yl}picolinonitrile], the IC50 against JAK2 tyrosine kinase was 2 nM; at JAK3 tyrosine kinase, 190 nM.

As to `C[C@H](Nc1nc(Nc2cnccn2)cc(-c2ccc(C(N)=O)nc2)n1)c1ccc(F)cc1` [Example 57, (S)-5-{2-[1-(4-Fluorophenyl)ethylamino]-6-(pyrazin-2-ylamino)pyrimidin-4-yl}picolinamide], the IC50 on JAK2 tyrosine kinase is 1.3 nM; against JAK3 tyrosine kinase it was 82 nM.

For the compound `C[C@H](Nc1nc(Nc2cnccn2)cc(N2CCNC(C(N)=O)C2)n1)c1ccc(F)cc1` (stereo partly drawn) [Example 58, 4-{2-[(S)-1-(4-Fluorophenyl)ethylamino]-6-(pyrazin-2-ylamino)pyrimidin-4-yl}piperazin-2-carboxamide], the half-inhibitory concentration (IC50) against JAK2 tyrosine kinase worked out at 0.69 nM; against JAK3 tyrosine kinase, 26 nM.

For `C[C@H](Nc1nc(Nc2cnccn2)cc(N2CCC(N)C2)n1)c1ccc(F)cc1` (stereo partly drawn) [Example 59, 6-(3-Aminopyrrolidin-1-yl)-N^2-[(S)-1-(4-fluorophenyl)ethyl]-N^4-(pyrazin-2-yl)pyrimidine-2,4-diamine], the results for the IC50 against JAK2 tyrosine kinase and against JAK3 tyrosine kinase were 1.7 nM and 60 nM, respectively.

Consider `C[C@H](Nc1nc(Nc2cnccn2)cc(N(CCO)CCO)n1)c1ccc(F)cc1` [Example 61, (S)-2-({2-[1-(4-Fluorophenyl)ethylamino]-6-(pyrazin-2-ylamino)pyrimidin-4-yl}(2-hydroxyethyl)amino)ethan-1-ol hydrochloride], for which the IC50 stood at 6 nM against JAK2 tyrosine kinase and 150 nM against JAK3 tyrosine kinase.

For the compound `C[C@H](Nc1nc(NCCN(C)C)cc(Nc2cnccn2)n1)c1ccc(F)cc1` [Example 62, (S)—N^4-[2-(Dimethylamino)ethyl]-N^2-[1-(4-fluorophenyl)ethyl]-N^6-(pyrazin-2-yl)pyrimidine-2,4,6-triamine dihydrochloride], the results for the IC50 on JAK2 tyrosine kinase and on JAK3 tyrosine kinase were 2.2 nM and 65 nM, respectively.

Regarding `C[C@H](Nc1nc(Nc2cnccn2)cc(N2CCCC(C(N)=O)C2)n1)c1ccc(F)cc1` (stereo partly drawn) [Example 63, 1-{2-[(S)-1-(4-Fluorophenyl)ethylamino]-6-(pyrazin-2-ylamino)pyrimidin-4-yl}piperidin-3-carboxamide hydrochloride], the IC50 came out at 1 nM against JAK2 tyrosine kinase and 36 nM against JAK3 tyrosine kinase.

Consider `C[C@H](Nc1nc(Nc2cnccn2)cc(N2CCC[C@H]2C(N)=O)n1)c1ccc(F)cc1` [Example 64, (S)-1-{2-[(S)-1-(4-Fluorophenyl)ethylamino]-6-(pyrazin-2-ylamino)pyrimidin-4-yl}pyrrolidin-2-carboxamide hydrochloride], for which the IC50 against JAK2 tyrosine kinase worked out at 7 nM; at JAK3 tyrosine kinase it was 220 nM.

`C[C@H](Nc1nc(Nc2cnccn2)cc(-c2cc[nH]c2)n1)c1ccc(F)cc1` [Example 66, (S)—N^2-[1-(4-Fluorophenyl)ethyl]-N^4-(pyrazin-2-yl)-6-(1H-pyrrol-3-yl)pyrimidine-2,4-diamine]: the figures for the IC50 at JAK2 tyrosine kinase and at JAK3 tyrosine kinase were 1.8 nM and 37 nM, respectively.

`C[C@H](Nc1nc(Nc2cnccn2)cc(N2C[C@H](O)CC2=O)n1)c1ccc(F)cc1` [Example 67, (R)-1-{2-[(S)-1-(4-Fluorophenyl)ethylamino]-6-(pyrazin-2-ylamino)pyrimidin-4-yl}-4-hydroxypyrrolidin-2-one]: the IC50 against JAK2 tyrosine kinase came to 11 nM; against JAK3 tyrosine kinase, 470 nM.
